Tests used:
U-2 OS cells [1] = assay: immunofluorescent staining of γ-H2AX foci (DNA DSBs); format: cell-based; settings: U-2 OS cells transiently expressing PAS-B variants
Protocol: To ascertain the functional relevance of NBS1 repression by hypoxia, the extent of DNA damage was assessed by immunofluorescent staining of γ-H2AX foci, a most sensitive method for quantifying DNA DSBs (Rogakou et al, 1998, 1999). […] Furthermore, results also show strikingly colocalized foci of γ-H2AX and 53BP1, the latter of which is known to interact with various DNA repair proteins including γ-H2AX in response to DSBs (Schultz et al, 2000). Thus, hypoxic cells experience DNA DSBs, presumably resulting from the NBS1 repression.
Immunofluorescence staining was performed essentially as described previously (Rogakou et al, 1999) with mouse anti-γ-H2AX antibody (Upstate) and rabbit anti-53BP1 (Novus Biologicals). Secondary antibodies were anti-mouse Alexa-546 and anti-rabbit Alexa-488 (Molecular Probes). Samples were mounted in antifade media, and were examined by fluorescent and laser-scanning confocal microscopy with a Nikon PCM 2000.

β-catenin = assay: immunoblotting of epithelial marker in retrovirally infected U-2 OS cells; format: cell-based
Protocol: A, Cells as indicated were infected by retroviruses expressing EYFP, EYFP-PAS-B fusion, and EYFP-PAS-B mutant. […] B, U-2 OS and those infected with retroviruses as above were analyzed by immunoblotting individual protein expression as indicated.

NBS1 [2] = assay: NBS1 protein levels by immunoblot in U-2 OS cells expressing PAS-B variants; format: cell-based; settings: forced expression in U-2 OS cells
Protocol: Immunoprecipitations and Western blot was performed essentially as described previously (Huang et al., 1998; Koshiji et al., 2005). In vitro translation and immunoprecipitations are described as before (Gu et al., 2001; Koshiji et al., 2005). The wheat germ extract system was purchased from Promega. λ protein phosphatase (New England Biolabs) and resveratrol (Sigma) with indicated concentrations were added to the in vitro translated products before immunoprecipitations.
U-2 OS cells were transfected with the Nucleofector system (Amaxa). Briefly, 1×10^6 cells were suspended in 100 μl pre-warmed Nucleofector Solution Kit V containing 2 μg plasmids. After electroporation the cells were transferred immediately into pre-warmed complete McCoy's 5A medium and seeded in 6-well plates. Cells were harvested 48 h after transfection.

HCT116 cells = assay: Matrigel invasion; format: cell-based, human; settings: retrovirally infected HCT116 cells, 24 h
Protocol: (§1) A, retrovirally infected HCT116 cells expressing EYFP, HIF-1α PAS-B, and mutant were assayed for Matrigel invasion. Images of cells on the membrane side were taken 24 h later. B, U-2 OS cells infected as above were assayed for anchorage-independent growth on soft agar. HIF-1α PAS-B expressed cells gave rise to formation of colonies 40 times more than others. HCT116 cells (known to grow on soft agar) were used as a positive control. Mock, uninfected cells.

Sp1 = target: T1, Sp1 (Oryctolagus cuniculus, UniProt G1SL61); assay: anti-Sp1 immunoprecipitation of in vitro translated products; format: binding, rabbit; settings: translated in rabbit reticulocyte lysate
T1 construct: from tissue; host or cells: rabbit reticulocyte lysate (in vitro translation system)
Protocol: Previously, it was shown that Myc displacement is mediated by the N-terminal HIF-1α (1-329), which competes with Myc for Sp1 binding in the MSH2 promoter (Koshiji et al, 2005). […] […] […] Of note, removal of part of the PAS-B from the C terminus (codon 299-329) destroyed Sp1 binding.
Immunoprecipitations and Western blot was performed essentially as described previously (Huang et al., 1998; Koshiji et al., 2005). In vitro translation and immunoprecipitations are described as before (Gu et al., 2001; Koshiji et al., 2005). […]

U-2 OS cells [3] = assay: tumor formation in a xenografted mouse model; format: in vivo; settings: athymic mice, subcutaneous injection of 1 million U-2 OS cells, within three weeks
Source text: Female BALB/c-nu/nu mice were subjected to bilateral, subcutaneous injections in the back with 1 million of U-2 OS cells, or those expressing EYFP, HIF-1α PAS-B, or the HIF-1α PAS-B mutant. A total of ten mice were divided into two groups with one type of cells injected on one side and another on the other side.

U-2 OS cells [4] = assay: anchorage-independent growth on soft agar; format: cell-based; settings: retrovirally infected U-2 OS cells
Protocol: as §1

HIF-1α = assay: Western blot after siRNA transfection of HCT116 cells; format: cell-based, human
Protocol: (§2) Western Blot. Western blot analysis was carried out as described previously.
(§3) RNA Interference. Transfection with siRNA duplexes and siRNA sequence information were described previously (Koshiji et al. 2005). CHK1 siRNA was described previously (Zhao et al. 2002). Luciferase siRNA was used as negative control.

HIF-2α = assay: as above; format: cell-based, human
Protocol: as §2, §3

NBS1 [5] = assay: NBS1 mRNA levels by real-time PCR in HCT116 cells; format: cell-based, human; settings: siRNA, hypoxia 1% O2 16 h
Protocol: HCT116 TP53^+/+, HCT116 TP53^−/− cells (Koshiji et al., 2004), and U-2 OS were grown in McCoy's 5A medium (Invitrogen), and HeLa cells in DMEM. For hypoxic treatment, cells were incubated in a hypoxic chamber (Innova CO-48, New Brunswick Scientific) maintaining 1% O2 and 5% CO2. Recombinant adenovirus generation and infection were as previously described (Koshiji et al., 2004).
Total RNA extraction, reverse transcription, and quantitative PCR were performed essentially as described previously (Koshiji et al., 2005). Taqman Gene Expression Assay kits for NBS1, MRE11A, RAD50, MSH2, and ACTB were purchased from Applied Biosystems. All experiments were repeated three times in triplicates, and representative results were presented as means±standard errors.

CDC25A = CDC25A and PGK1 mRNA by real-time RT-PCR in siRNA-transfected HCT116 cells; format: cell-based, human; settings: siRNA 24 h then hypoxia 16 h
Protocol: Real-Time RT-PCR. Real-time RT-PCR was performed essentially as described previously (Koshiji et al. 2005). Primer and probe (Applied Biosystems) sequences were as follows: CDC25A, forward 5′-[…]-3′ (SEQ ID NO: 25), reverse 5′-[…]-3′ (SEQ ID NO: 26), probe 5′-FAM-[…]-MGB-3′ (SEQ ID NO: 27). PGK-1 (FAM-MGB probe) and ACTB (VIC-MGB probe) were detected with endogenous control reagents from Applied Biosystems. β-actin primers and probe were included into each reaction for normalization. All the experiments were repeated three times in triplicate, and representative results were presented in mean±standard error.
as §3

CDC25A promoter = assay: CDC25A reporter (luciferase) assay in HCT116 cells; format: cell-based, human; settings: hypoxia
Protocol: Reporter Assay. Reporter assays were conducted as described previously (Huang et al. 2002). The Myc effect on the reporter was examined by cotransfection with 0.4 μg pMyc (Koshiji et al. 2004a) or as specified.

[6] = target: synthetic peptide corresponding to HIF-1α residues 299-329
[7] = target: synthetic peptide harboring HIF-2α T324V mutation
[8] = target: synthetic peptide including HIF-2α residues 314-331

T1 sequence (G1SL61 1-788): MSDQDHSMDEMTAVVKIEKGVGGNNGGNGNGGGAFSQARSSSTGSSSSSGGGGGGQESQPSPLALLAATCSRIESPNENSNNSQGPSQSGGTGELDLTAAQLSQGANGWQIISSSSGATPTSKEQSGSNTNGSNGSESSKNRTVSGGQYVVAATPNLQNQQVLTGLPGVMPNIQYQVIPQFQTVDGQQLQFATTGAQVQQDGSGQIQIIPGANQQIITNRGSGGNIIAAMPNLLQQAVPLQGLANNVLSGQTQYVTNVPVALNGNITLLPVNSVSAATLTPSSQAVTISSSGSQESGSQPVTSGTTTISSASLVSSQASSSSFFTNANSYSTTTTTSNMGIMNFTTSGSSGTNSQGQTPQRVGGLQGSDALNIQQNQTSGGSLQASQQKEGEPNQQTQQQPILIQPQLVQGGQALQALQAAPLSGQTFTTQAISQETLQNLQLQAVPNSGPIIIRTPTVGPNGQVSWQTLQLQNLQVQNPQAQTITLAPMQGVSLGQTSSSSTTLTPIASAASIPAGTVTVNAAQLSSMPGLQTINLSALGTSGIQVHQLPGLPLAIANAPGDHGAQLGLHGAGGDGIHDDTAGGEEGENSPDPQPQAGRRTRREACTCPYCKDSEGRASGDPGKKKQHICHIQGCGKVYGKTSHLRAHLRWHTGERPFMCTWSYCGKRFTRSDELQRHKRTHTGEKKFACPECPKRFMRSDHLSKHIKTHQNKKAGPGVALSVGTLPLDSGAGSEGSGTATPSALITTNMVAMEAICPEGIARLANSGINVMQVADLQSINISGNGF

With “PAS1B: HIF-1α PAS-B domain (codon 194-329)” the “γ-H2AX foci colocalized with 53BP1” value (U-2 OS cells [1]) was “significantly increased”, the β-catenin protein expression (β-catenin) was “marked decrease” and the NBS1 protein levels (NBS1 [2]) was “sufficient to eliminate NBS1 protein levels”. The invasiveness versus controls (HCT116 cells) was “much more invasive”, the Sp1 binding (Sp1) was “sufficient for Sp1 interaction” and the tumor nodules formation (U-2 OS cells [3]) was “formed tumor nodules”. The “formation of colonies on soft agar relative to others” value (U-2 OS cells [4]) was 40 times.

In the case of “5′-AACTGATGACCAGCAACTTGA-3′ [HIF1A siRNA]”, the “decrease of HIF-1α protein levels” value (HIF-1α) is reported as over 80%, the HIF-2α levels (HIF-2α) is reported as “remained unaffected” and the “effect on NBS1 and MSH2 downregulation and PGK1 upregulation in hypoxic cells” value (NBS1 [5]) is reported as “abrogated”. For the same molecule, the “effect on hypoxic CDC25A down-regulation and PGK1 up-regulation” value (CDC25A) was “effectively blocked the CDC25A down-regulation” and the “hypoxic inhibition of CDC25A reporter expression” value (CDC25A promoter) was “abrogated”.

B1: recombinant PKD1 (Upstate Biotechnology) (protein)
chain: MSAPPVLRPPSPLLPVAAAAAAAAAALVPGSGPGPAPFLAPVAAPVGGISFHLQIGLSREPVLLLQDSSGDYSLAHVREMACSIVDQKFPECGFYGMYDKILLFRHDPTSENILQLVKAASDIQEGDLIEVVLSASATFEDFQIRPHALFVHSYRAPAFCDHCGEMLWGLVRQGLKCEGCGLNYHKRCAFKIPNNCSGVRRRRLSNVSLTGVSTIRTSSAELSTSAPDEPLLQKSPSESFIGREKRSNSQSYIGRPIHLDKILMSKVKVPHTFVIHSYTRPTVCQYCKKLLKGLFRQGLQCKDCRFNCHKRCAPKVPNNCLGEVTINGDLLSPGAESDVVMEEGSDDNDSERNSGLMDDMEEAMVQDAEMAMAECQNDSGEMQDPDPDHEDANRTISPSTSNNIPLMRVVQSVKHTKRKSSTVMKEGWMVHYTSKDTLRKRHYWRLDSKCITLFQNDTGSRYYKEIPLSEILSLEPVKTSALIPNGANPHCFEITTANVVYYVGENVVNPSSPSPNNSVLTSGVGADVARMWEIAIQHALMPVIPKGSSVGTGTNLHRDISVSISVSNCQIQENVDISTVYQIFPDEVLGSGQFGIVYGGKHRKTGRDVAIKIIDKLRFPTKQESQLRNEVAILQNLHHPGVVNLECMFETPERVFVVMEKLHGDMLEMILSSEKGRLPEHITKFLITQILVALRHLHFKNIVHCDLKPENVLLASADPFPQVKLCDFGFARIIGEKSFRRSVVGTPAYLAPEVLRNKGYNRSLDMWSVGVIIYVSLSGTFPFNEDEDIHDQIQNAAFMYPPNPWKEISHEAIDLINNLLQVKMRKRYSVDKTLSHPWLQDYQTWLDLRELECKIGERYITHESDDLRWEKYAGEQGLQYPTHLINPSASHSDTPETEETEMKALGERVSIL
B1 was tested, and the “PKD1-mediated phosphorylation in an in vitro kinase assay (c.p.m.)” value (“PKD1-mediated phosphorylation … (c.p.m.)” for short) [6] was “a HIF-2α peptide, but not its HIF-1α counterpart, was robustly phosphorylated”, the “PKD1-mediated phosphorylation … (c.p.m.)” value [7] was “replacement of Thr-324 with valine abolished phosphorylation” and the “PKD1-mediated phosphorylation … (c.p.m.)” value [8] was “a HIF-2α peptide, but not its HIF-1α counterpart, was robustly phosphorylated”.

Reference: US20100074897A1, “Methods and Compositions related to HIF-1 alpha” (University of Utah Research Foundation, priority 2006, published 2010)
